According to ChEMBL document CHEMBL4376865, “Discovery and Characterization of 1H-1,2,3-Triazole Derivatives as Novel Prostanoid EP4 Receptor Antagonists for Cancer Immunotherapy” (J Med Chem, 2020):
One block for each molecule: values may come before it.

What was measured:
[1] = biological target: Prostaglandin E2 receptor EP4 subtype (Homo sapiens, UniProt P35408)
Description: Antagonist activity at human EP4 expressed in CHO cells coexpressing G16-alpha assessed as intracellular calcium flux preincubated for 15 mins followed by addition of PGE2 by calcium flux assay

[2] = biological target: Prostaglandin E2 receptor EP4 subtype (Mus musculus, UniProt P32240); assay: Antagonist activity at mouse EP4 expressed in CHO cells coexpressing G16-alpha assessed as intracellular calcium flux preincubated for 15 mins followed by addition of PGE2 by calcium flux assay; type: functional, cell-based
Sequence of Prostaglandin E2 receptor EP4 subtype (Mus musculus, UniProt P32240) (P32240 whole entry): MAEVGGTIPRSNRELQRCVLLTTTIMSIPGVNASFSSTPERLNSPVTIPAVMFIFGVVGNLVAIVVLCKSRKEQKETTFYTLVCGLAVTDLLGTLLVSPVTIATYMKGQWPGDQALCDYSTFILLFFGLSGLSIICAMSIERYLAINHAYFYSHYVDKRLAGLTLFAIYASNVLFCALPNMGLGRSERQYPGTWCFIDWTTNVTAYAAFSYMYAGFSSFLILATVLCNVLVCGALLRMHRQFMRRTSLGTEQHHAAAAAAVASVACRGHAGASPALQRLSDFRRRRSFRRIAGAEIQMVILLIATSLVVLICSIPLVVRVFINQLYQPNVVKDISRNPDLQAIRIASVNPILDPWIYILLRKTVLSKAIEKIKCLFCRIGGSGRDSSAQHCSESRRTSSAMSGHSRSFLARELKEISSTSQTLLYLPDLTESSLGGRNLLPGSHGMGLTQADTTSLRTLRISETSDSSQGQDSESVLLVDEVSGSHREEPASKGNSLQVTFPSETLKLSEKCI

in vitro [3] = settings: human, liver microsomes
[4] = biological target: T1, Prostaglandin E2 receptor EP3 subtype (Homo sapiens, UniProt P43115)
T1 sequence (P43115 whole entry): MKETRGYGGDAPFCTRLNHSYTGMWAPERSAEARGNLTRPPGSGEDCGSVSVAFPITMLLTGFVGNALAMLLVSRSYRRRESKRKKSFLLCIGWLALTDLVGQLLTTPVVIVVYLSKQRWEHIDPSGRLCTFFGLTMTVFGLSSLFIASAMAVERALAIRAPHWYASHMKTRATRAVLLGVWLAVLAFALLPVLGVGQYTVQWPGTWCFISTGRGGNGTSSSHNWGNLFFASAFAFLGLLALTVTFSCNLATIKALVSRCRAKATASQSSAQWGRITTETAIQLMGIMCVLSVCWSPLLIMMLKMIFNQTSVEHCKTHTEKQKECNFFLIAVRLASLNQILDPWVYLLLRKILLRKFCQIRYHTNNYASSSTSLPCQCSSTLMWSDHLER
Description: Antagonist activity at human EP3 expressed in CHO cells coexpressing G16-alpha assessed as intracellular calcium flux preincubated for 15 mins followed by addition of PGE2 by calcium flux assay

[5] = biological target: Prostaglandin E2 receptor EP2 subtype (Homo sapiens, UniProt P43116)
Sequence of Prostaglandin E2 receptor EP2 subtype (P43116 whole entry): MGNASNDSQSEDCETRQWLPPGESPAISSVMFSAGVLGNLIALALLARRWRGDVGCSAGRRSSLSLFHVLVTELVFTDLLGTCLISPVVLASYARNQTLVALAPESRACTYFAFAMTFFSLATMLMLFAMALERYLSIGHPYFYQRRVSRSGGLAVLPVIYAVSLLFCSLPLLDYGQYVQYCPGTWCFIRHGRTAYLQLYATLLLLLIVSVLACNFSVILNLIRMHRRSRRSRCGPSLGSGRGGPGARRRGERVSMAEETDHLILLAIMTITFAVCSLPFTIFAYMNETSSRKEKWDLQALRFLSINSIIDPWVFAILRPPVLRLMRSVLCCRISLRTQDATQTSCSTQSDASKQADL
Description: Antagonist activity at human EP2 expressed in CHO cells coexpressing G16-alpha assessed as intracellular calcium flux preincubated for 15 mins followed by addition of PGE2 by calcium flux assay

in vitro [6] = settings: human, liver microsomes; remark: listed apart in the source
[7] = Metabolic stability in human liver microsomes assessed as compound remaining at 10 uM incubated for 1 hr
[8] = biological target: T2, Prostaglandin E2 receptor EP1 subtype (Homo sapiens, UniProt P34995); assay: Antagonist activity at human EP1 expressed in CHO cells coexpressing G16-alpha assessed as intracellular calcium flux preincubated for 15 mins followed by addition of PGE2 by calcium flux assay; type: functional, cell-based
T2 sequence (P34995 whole entry): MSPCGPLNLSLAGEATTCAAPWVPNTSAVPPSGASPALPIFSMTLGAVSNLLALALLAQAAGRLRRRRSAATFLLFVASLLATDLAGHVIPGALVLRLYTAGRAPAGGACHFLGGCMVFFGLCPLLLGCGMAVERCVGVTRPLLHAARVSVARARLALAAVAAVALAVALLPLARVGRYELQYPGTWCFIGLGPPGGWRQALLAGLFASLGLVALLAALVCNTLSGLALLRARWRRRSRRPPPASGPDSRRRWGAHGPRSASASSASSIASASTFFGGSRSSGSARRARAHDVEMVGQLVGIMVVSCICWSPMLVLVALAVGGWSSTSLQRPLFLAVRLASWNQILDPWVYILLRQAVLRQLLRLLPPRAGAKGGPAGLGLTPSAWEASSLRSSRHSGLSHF

CYP2D6 = CYP2D6 (Homo sapiens, UniProt P10635); assay: Inhibition of CYP2D6 in human liver microsomes at 20 uM using dextromethorphan as substrate incubated for 60 mins by HPLC analysis relative to control; type: ADME; settings: probe dextromethorphan
Sequence of CYP2D6 (P10635 whole entry): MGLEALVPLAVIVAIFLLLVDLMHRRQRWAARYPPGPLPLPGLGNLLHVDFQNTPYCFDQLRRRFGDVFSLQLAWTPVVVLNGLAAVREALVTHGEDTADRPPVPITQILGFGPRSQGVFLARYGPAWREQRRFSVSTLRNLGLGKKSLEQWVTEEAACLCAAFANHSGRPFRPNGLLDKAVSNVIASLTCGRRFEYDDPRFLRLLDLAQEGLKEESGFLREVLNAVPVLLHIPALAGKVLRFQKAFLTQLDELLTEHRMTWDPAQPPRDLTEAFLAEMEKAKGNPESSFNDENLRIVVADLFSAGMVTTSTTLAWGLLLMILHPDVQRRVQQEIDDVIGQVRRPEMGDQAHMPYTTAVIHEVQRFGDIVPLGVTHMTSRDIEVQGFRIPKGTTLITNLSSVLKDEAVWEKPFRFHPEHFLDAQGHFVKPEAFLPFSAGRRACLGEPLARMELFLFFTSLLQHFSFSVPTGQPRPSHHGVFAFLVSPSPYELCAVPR

Cytochrome P450 3A4 = Cytochrome P450 3A4 (Homo sapiens, UniProt P08684); assay: Inhibition of CYP3A4 in human liver microsomes at 20 uM using testosterone as substrate incubated for 60 mins by HPLC analysis; type: ADME; settings: 1 h
Sequence of Cytochrome P450 3A4 (P08684 whole entry): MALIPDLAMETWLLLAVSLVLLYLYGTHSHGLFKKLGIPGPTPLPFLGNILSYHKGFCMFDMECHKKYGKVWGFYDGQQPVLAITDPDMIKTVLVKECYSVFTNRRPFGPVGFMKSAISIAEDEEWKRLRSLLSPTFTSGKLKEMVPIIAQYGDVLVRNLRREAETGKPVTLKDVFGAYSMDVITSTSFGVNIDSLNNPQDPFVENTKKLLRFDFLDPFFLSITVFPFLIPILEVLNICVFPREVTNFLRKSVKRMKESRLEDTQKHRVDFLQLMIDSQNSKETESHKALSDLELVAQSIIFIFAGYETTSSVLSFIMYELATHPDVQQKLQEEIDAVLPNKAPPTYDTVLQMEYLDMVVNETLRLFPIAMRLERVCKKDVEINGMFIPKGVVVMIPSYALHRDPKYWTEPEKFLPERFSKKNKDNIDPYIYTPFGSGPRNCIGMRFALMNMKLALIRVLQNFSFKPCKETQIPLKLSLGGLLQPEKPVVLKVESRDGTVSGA

CYP1A2 = biological target: T3, CYP1A2 (Homo sapiens, UniProt P05177); assay: Inhibition of CYP1A2 in human liver microsomes at 20 uM using phenacetin as substrate incubated for 30 mins by HPLC analysis relative to control; type: ADME; settings: probe phenacetin
T3 sequence (P05177 whole entry): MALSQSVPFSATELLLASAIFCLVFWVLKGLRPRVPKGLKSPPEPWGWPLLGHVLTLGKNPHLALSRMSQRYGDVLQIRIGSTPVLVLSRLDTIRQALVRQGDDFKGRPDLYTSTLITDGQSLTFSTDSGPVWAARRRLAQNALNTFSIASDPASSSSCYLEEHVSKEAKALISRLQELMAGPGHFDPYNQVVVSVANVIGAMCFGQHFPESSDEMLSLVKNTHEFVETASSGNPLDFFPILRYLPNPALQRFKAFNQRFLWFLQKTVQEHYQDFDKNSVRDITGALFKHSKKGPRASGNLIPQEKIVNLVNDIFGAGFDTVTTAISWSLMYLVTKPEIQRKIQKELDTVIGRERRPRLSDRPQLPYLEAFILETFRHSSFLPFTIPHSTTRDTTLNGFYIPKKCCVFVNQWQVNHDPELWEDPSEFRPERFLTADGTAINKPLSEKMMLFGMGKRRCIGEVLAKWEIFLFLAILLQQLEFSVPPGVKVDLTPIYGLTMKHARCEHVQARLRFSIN

CYP2E1 = CYP2E1 (Homo sapiens, UniProt P05181); assay: Inhibition of CYP2E1 in human liver microsomes at 20 uM using chlorzoxazone as substrate incubated for 60 mins by HPLC analysis relative to control; type: ADME; settings: probe chlorzoxazone
Sequence of CYP2E1 (P05181 whole entry): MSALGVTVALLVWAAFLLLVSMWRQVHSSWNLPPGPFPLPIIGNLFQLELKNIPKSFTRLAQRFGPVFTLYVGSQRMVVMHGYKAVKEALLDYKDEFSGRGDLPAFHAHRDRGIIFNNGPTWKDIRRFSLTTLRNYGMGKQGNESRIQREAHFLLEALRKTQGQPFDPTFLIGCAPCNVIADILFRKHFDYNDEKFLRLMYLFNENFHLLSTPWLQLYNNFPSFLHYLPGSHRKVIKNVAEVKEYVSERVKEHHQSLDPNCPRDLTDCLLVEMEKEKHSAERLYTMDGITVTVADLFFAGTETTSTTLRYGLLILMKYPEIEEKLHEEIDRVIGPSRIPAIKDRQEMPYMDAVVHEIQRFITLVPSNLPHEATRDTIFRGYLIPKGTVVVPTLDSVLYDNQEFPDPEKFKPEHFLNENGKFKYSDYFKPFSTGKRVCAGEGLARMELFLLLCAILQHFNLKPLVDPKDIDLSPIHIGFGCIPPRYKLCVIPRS

CYP2B6 = biological target: T4, CYP2B6 (Homo sapiens, UniProt P20813); assay: Inhibition of CYP2B6 in human liver microsomes at 20 uM incubated for 60 mins by HPLC analysis relative to control; type: ADME
T4 sequence (P20813 whole entry): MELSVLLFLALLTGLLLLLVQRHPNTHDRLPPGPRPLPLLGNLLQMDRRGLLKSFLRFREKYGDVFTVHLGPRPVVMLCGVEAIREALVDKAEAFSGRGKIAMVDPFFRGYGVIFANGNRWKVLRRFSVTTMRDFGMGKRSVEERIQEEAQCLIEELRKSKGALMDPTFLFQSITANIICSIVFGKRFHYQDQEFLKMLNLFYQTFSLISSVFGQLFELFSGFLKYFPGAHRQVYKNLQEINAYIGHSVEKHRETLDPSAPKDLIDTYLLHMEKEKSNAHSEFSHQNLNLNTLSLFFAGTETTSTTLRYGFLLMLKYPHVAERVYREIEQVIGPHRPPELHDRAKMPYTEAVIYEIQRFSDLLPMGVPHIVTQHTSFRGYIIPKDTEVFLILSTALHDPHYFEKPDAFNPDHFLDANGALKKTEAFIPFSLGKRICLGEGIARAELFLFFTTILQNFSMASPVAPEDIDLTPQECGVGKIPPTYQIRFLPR

CYP2C9 = CYP2C9 (Homo sapiens, UniProt P11712); assay: Inhibition of CYP2C9 in human liver microsomes at 20 uM using tolbutamide as substrate incubated for 60 mins by HPLC analysis relative to control; type: ADME; settings: probe tolbutamide
Sequence of CYP2C9 (P11712 whole entry): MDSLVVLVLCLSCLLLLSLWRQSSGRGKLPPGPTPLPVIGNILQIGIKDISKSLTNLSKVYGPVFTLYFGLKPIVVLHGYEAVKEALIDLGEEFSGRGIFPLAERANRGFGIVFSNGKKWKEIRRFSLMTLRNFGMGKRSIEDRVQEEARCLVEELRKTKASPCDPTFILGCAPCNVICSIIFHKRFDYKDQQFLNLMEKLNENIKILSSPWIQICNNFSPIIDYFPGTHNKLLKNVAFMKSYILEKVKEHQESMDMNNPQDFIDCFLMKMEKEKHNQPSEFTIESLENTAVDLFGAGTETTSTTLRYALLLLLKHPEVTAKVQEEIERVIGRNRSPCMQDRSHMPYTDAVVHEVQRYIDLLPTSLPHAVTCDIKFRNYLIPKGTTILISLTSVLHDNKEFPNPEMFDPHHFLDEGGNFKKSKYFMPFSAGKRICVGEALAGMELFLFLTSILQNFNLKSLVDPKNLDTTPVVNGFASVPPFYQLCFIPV

CT26 = assay: Antitumor activity against mouse CT26 cells xenografted in BALB/c mouse assessed as tumor growth inhibition at 150 mg/kg, po administerd daily and measured after two weeks; settings: 336 h, read-out: TGI

Sequence of Prostaglandin E2 receptor EP4 subtype (Homo sapiens, UniProt P35408) (P35408 whole entry): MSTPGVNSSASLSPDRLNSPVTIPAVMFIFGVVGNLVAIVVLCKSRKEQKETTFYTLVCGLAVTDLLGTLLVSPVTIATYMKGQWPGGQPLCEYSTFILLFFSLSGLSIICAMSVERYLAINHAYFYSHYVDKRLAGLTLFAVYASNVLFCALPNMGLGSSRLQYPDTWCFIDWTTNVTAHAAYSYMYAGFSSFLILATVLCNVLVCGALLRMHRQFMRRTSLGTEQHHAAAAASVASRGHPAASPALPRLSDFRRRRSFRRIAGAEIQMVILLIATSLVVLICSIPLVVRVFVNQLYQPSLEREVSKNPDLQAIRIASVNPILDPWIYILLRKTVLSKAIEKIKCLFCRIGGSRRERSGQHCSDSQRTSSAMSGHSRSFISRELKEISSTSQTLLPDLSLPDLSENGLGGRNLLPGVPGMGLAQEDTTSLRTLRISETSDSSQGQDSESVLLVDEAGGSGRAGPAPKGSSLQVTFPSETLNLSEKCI

IC50 [1]: > 10000 nM
SMILES: C[C@H](NC(=O)c1nnn(CCc2ccc(F)cc2)c1C(F)(F)F)c1ccc(C(=O)O)cc1

IC50 [1]: > 10000 nM
SMILES: Cc1nnn(Cc2ccc(C(F)(F)F)cc2)c1C(=O)N[C@@H](C)c1ccc(C(=O)O)cc1

IC50 [2]: 130 nM | IC50 [1]: 10.5 nM
SMILES: C/C=C/c1nnn(Cc2ccc(C(F)(F)F)cc2)c1C(=O)NCc1ccc(C(=O)O)cc1

IC50 [1]: > 10000 nM
SMILES: CCc1nnn(Cc2ccc(C(F)(F)F)cc2)c1C(=O)N[C@@H](C)c1ccc(C(=O)O)cc1

IC50 [2]: 57.6 nM | half-life at 1 h, 10 µM (in vitro [3]): > 145 min | IC50 [4]: > 10 µM | IC50 [5]: > 10 µM | IC50 [1]: 45.6 nM | microsomal CLint at 1 h, 10 µM (in vitro [6]): < 9.6 µL/min/mg | remaining at 1 h, 10 µM [7]: 87.9% | IC50 [8]: > 10 µM
SMILES: C[C@H](NC(=O)c1c(-c2ccoc2)nnn1Cc1ccc(C(F)(F)F)cc1)c1ccc(C(=O)O)cc1

IC50 [1]: 75.3 nM
SMILES: C[C@H](NC(=O)c1c(C2CCC2)nnn1Cc1ccc(C(F)(F)F)cc1)c1ccc(C(=O)O)cc1

IC50 [1]: > 10000 nM
SMILES: C[C@H](NC(=O)c1nnn(Cc2ccc(C(F)(F)F)cc2)c1C(F)(F)F)c1ccc(C(=O)O)cc1

IC50 [2]: 132 nM | IC50 [4]: > 10 µM | IC50 [5]: > 10 µM | IC50 [8]: > 10 µM
SMILES: C[C@H](NC(=O)c1c(-c2ccccc2)nnn1CCOc1ccc(F)cc1)c1ccc(C(=O)O)cc1

IC50 [1]: 57.9 nM
SMILES: C[C@H](NC(=O)c1c(-c2ccc(F)cc2)nnn1Cc1ccc(C(F)(F)F)cc1)c1ccc(C(=O)O)cc1

IC50 [2]: 135 nM | inhibition at 1 h, 20 µM (CYP2D6): 30% | IC50 [4]: > 10 µM | inhibition (INH) (Cytochrome P450 3A4): Not Active | IC50 [5]: > 10 µM | inhibition at 0.5 h, 20 µM (CYP1A2): 30% | inhibition at 1 h, 20 µM (CYP2E1): 67% | inhibition at 1 h, 20 µM (CYP2B6): 51% | IC50 [8]: > 10 µM | inhibition at 1 h, 20 µM (CYP2C9): 67%
SMILES: C[C@H](NC(=O)c1c(-c2ccccc2)nnn1CCOc1cccc(C(F)(F)F)c1)c1ccc(C(=O)O)cc1

IC50 [2]: 220 nM
SMILES: C/C=C/c1nnn(Cc2ccc(C(F)(F)F)cc2)c1C(=O)NCC1CCC(C(=O)O)CC1 (stereo not given)

IC50 [2]: 906 nM | half-life at 1 h, 10 µM (in vitro [3]): > 145 min | IC50 [4]: > 10 µM | IC50 [5]: > 10 µM | IC50 [1]: 8.5 nM | microsomal CLint at 1 h, 10 µM (in vitro [6]): < 9.6 µL/min/mg | remaining at 1 h, 10 µM [7]: 84.9% | IC50 [8]: > 10 µM
SMILES: C[C@H](NC(=O)c1c(-c2ccccc2)nnn1Cc1ccc(C(F)(F)F)cc1)c1ccc(C(=O)O)cc1

IC50 [1]: > 10000 nM
SMILES: C[C@H](NC(=O)c1nnn(Cc2cccc(C(F)(F)F)c2)c1C(F)(F)F)c1ccc(C(=O)O)cc1

IC50 [2]: 181 nM | inhibition at 1 h, 20 µM (CYP2D6): 35% | inhibition (INH) (Cytochrome P450 3A4): Not Active | inhibition at 0.5 h, 20 µM (CYP1A2): 41% | inhibition at 1 h, 20 µM (CYP2E1): 79% | inhibition at 1 h, 20 µM (CYP2B6): 23% | inhibition at 1 h, 20 µM (CYP2C9): 67%
SMILES: C[C@H](NC(=O)c1c(C(F)F)nn(C)c1Oc1cccc(C(F)(F)F)c1)c1ccc(C(=O)O)cc1 [PALUPIPRANT]
inhibition in vivo at 150 mg/kg (CT26): 43.2%

IC50 [1]: 119 nM
SMILES: COc1ccc(Cn2nnc(-c3ccccc3)c2C(=O)N[C@@H](C)c2ccc(C(=O)O)cc2)cc1OC

IC50 [1]: 225 nM
SMILES: C[C@H](NC(=O)c1c(C(F)(F)F)nnn1Cc1ccc(C(F)(F)F)cc1)c1ccc(C(=O)O)cc1
